Test results taken from patent publication US8314150B2, “Kinase protein binding inhibitors” (priority 2008, dated 2012).

Assays:
[1] = tested on: BT474, T47D, MCF-7 breast cancer, HT29 colon cancer, C8161 melanoma, A549 lung cancer cell lines; test: MTT cell viability screen of 36 compounds in 6 cancer cell lines; format: cell-based; conditions: 100 μM, 24 hours, among 36 compounds
Procedure: (§1) Cell Viability Assay—The Cells were treated with peptides for 24 hours at different peptide concentrations. The 3-(4,5-dimethylthiazol-2-yl)-5-(3-carboxymethoxyphenyl)-2-(4-sulfophenyl)-2H-tetrazolium compound from Promega Viability kit (Madison, Ill.) was added, and the cells were incubated at 37° C. for 1-2 hours. The optical density on 96-plate was analyzed with a microplate reader at 490 nm to determine cell viability. In addition, cells were stained with trypan blue after 24 hours of treatment with Y15 and the percent of cells that stained positive were determined with a hemacytometer. […] Then 2% SDS was added to the dried plated and OD at 590 nm was measured for detecting cell adhesion. […] Protein concentrations were determined using a Bio-Rad Kit. The boiled samples were loaded on Ready SDS-10% PAGE gels (Bio Rad, Inc) and used for Western blot analysis with the protein-specific antibody. […] Detachment Assay—Cells were plated with and without inhibitors for 24 hours, and detached and attached cells were counted in a hemocytometer. We calculated the percent of detachment by dividing the number of detached cells by the total number of cells. The percent of detached cells was calculated in three independent experiments. […] For each experiment 300 cells per treatment were counted. […]

[2] = tested on: BT474 breast cancer cells; test: MTT cell viability assay, BT474; format: cell-based; conditions: 24 hours
Procedure: as §1

[3] = tested on: Y397 phosphorylation of FAK; test: Western blotting with Y397 FAK antibody, BT474 cells; format: cell-based
Procedure: (§2) Cell Viability Assay—The Cells were treated with peptides for 24 hours at different peptide concentrations. The 3-(4,5-dimethylthiazol-2-yl)-5-(3-carboxymethoxyphenyl)-2-(4-sulfophenyl)-2H-tetrazolium compound from Promega Viability kit (Madison, Ill.) was added, and the cells were incubated at 37° C. for 1-2 hours. The optical density on 96-plate was analyzed with a microplate reader at 490 nm to determine cell viability. In addition, cells were stained with trypan blue after 24 hours of treatment with Y15 and the percent of cells that stained positive were determined with a hemacytometer. Cell adhesion assay—The poly-L-Lysine or Collagen (5 μg/ml) coated 96-well plates were blocked with the blocking buffer (medium with 0.5% BSA) for 1 hour at 37 C. The cells were pre-treated with drugs for 3 hours and plated for adhesion at 4×10^5 cells. Cells were incubated at 37 C for 1 hour, fixed in 3.7% formaldehyde, washed in 0.1% BSA in PBS and stained with crystal violet (5 mg/ml in 2% ethanol) for 10 minutes. Then 2% SDS was added to the dried plated and OD at 590 nm was measured for detecting cell adhesion. Western Blotting—Cells or homogenized tumor samples were washed twice with cold 1×PBS and lysed on ice for 30 minutes in a buffer containing: 50 mM Tris-HCl (pH 7.5), 150 mM NaCl, 1% Triton-X, 0.5% NaDOC, 0.1% SDS, 5 mM EDTA, 50 mM NaF, 1 mM NaVO3, 10% glycerol and protease inhibitors: 10 μg/ml leupeptin, 10 μg/ml PMSF and 1 μg/ml aprotinin. The lysates were cleared by centrifugation at 10,000 rpm for 30 minutes at 4° C. Protein concentrations were determined using a Bio-Rad Kit. The boiled samples were loaded on Ready SDS-10% PAGE gels (Bio Rad, Inc) and used for Western blot analysis with the protein-specific antibody. Immunoblots were developed with chemiluminescence Renaissance reagent (NEN Life Science Products, Inc). Immunoprecipitation. Immunoprecipitation was performed according to the standard protocol. In brief, the pre-cleared lysates with equal amount of protein were incubated with 1 μg of primary antibody and 30 μl A/G agarose beads overnight at 4° C. The precipitates were washed with lysis buffer three times and re-suspended in 2× Laemmli buffer. The boiled samples were used for Western blotting, as described above. Detachment Assay—Cells were plated with and without inhibitors for 24 hours, and detached and attached cells were counted in a hemocytometer. We calculated the percent of detachment by dividing the number of detached cells by the total number of cells. The percent of detached cells was calculated in three independent experiments. Apoptosis Assay. Detached cells were collected and fixed in 3.7% formaldehyde in 1×PBS solution for the apoptosis assay. Detection of apoptosis was done with Hoechst 33342 staining. The percent of apoptotic cells was calculated as a ratio of apoptotic detached cells divided by the total number of cells in three independent experiments in several fields with the fluorescent microscope. For each experiment 300 cells per treatment were counted. In vitro Kinase Assay—10 μCi of [γ-^32P]-ATP in a kinase buffer (20 mM HEPES, pH 7.4, 5 mM MgCl2, 5 mM MnCl2, 0.1 mM Na3VO4 with 0.1 μg of purified FAK protein were incubated in a kinase buffer with 10 μCi of [γ-^32P]-ATP. The kinase reaction was performed for 5 minutes at room temperature and stopped by addition of 2× Laemmli buffer. Proteins were separated on a Ready SDS-10% PAGE gel, and the phosphorylated enolase was visualized by autoradiography. KinaseProfiler screening—Kinase specificity screening was performed with KinaseProfiler™ Service (Millipore) available on http://www.millipore.com/drugdiscovery/dd3/KinaseProfiler. The screening was performed with 1 μM Y15, 10 μM ATP and kinase substrates on 9 recombinant kinases according to Millipore protocol. Tumor Growth in Nude Mice—Female nude mice, 6 weeks old, were purchased from Harlan Laboratory. […]

[4] = tested on: Y118-paxillin phosphorylation; test: Western blotting Y118-paxillin, BT474 cells; format: cell-based; conditions: 100 μM, 24 hours
Procedure: as §1

c-Src phosphorylation = test: Phosphorylation of c-Src in cells; format: cell-based; conditions: not shown
Procedure: as §1

paxillin phosphorylation = test: Western blotting p-paxillin, Panc-1 cells; format: cell-based, human; conditions: 24 hours
Procedure: as §1

FAK = molecular target: T1, FAK (Homo sapiens, UniProt Q05397); test: In vitro kinase assay with purified recombinant FAK; format: biochemical; conditions: doses 1-100 μM tested
T1 construct: made in house; host or cells: Baculovirus system
T1 sequence (Q05397 whole entry): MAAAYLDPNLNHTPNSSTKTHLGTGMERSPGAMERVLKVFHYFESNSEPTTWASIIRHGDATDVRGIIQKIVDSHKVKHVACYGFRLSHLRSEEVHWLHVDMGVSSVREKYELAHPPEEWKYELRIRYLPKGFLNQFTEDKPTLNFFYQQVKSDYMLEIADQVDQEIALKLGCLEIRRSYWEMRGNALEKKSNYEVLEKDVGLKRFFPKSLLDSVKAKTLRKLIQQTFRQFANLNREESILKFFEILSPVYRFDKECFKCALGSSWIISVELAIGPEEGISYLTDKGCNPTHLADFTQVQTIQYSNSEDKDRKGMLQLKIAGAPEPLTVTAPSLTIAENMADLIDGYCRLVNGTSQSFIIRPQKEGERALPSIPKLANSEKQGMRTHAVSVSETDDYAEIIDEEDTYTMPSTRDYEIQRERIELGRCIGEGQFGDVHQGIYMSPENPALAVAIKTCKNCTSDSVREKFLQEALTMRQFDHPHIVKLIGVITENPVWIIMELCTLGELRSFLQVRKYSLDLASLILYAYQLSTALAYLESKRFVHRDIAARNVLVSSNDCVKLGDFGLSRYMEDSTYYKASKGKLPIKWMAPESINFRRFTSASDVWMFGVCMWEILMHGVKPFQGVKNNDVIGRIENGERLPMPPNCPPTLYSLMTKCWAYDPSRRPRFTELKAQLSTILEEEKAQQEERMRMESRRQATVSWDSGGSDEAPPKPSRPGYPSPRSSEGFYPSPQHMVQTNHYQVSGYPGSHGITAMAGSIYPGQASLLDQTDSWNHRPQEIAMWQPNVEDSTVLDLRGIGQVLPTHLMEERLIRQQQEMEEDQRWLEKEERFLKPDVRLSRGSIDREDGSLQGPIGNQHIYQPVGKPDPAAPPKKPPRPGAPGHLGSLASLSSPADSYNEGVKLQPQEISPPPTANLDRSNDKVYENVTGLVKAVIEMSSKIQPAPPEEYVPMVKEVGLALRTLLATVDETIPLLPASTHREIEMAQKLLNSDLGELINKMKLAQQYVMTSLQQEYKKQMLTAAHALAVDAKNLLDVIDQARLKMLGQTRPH
Procedure: as §1

BT474 cells [5] = test: Detachment assay, BT474; format: cell-based; conditions: 24 hours
Procedure: as §2, with “Detached cells were collected and fixed in 3.7% formaldehyde in 1×PBS solution for the apoptosis assay. Detection of apoptosis was done with Hoechst 33342 staining.” left out, “http://www.millipore.com/drugdiscovery/dd3/KinaseProfiler.” for “http://www.millipore.com/drugdiscovery/dd3/KinaseProfiler. The screening was performed with 1 μM Y15, 10 μM ATP and kinase substrates on 9 recombinant kinases according to Millipore protocol. Tumor Growth in Nude Mice—Female nude mice, 6 weeks old, were purchased from Harlan Laboratory.”

Panc-1 cells = test: Apoptosis assay (Hoechst staining), Panc-1; format: cell-based, human
Procedure: Cell Viability Assay—The Cells were treated with peptides for 24 hours at different peptide concentrations. The 3-(4,5-dimethylthiazol-2-yl)-5-(3-carboxymethoxyphenyl)-2-(4-sulfophenyl)-2H-tetrazolium compound from Promega Viability kit (Madison, Ill.) was added, and the cells were incubated at 37° C. for 1-2 hours. The optical density on 96-plate was analyzed with a microplate reader at 490 nm to determine cell viability. In addition, cells were stained with trypan blue after 24 hours of treatment with Y15 and the percent of cells that stained positive were determined with a hemacytometer. Cell adhesion assay—The poly-L-Lysine or Collagen (5 μg/ml) coated 96-well plates were blocked with the blocking buffer (medium with 0.5% BSA) for 1 hour at 37 C. The cells were pre-treated with drugs for 3 hours and plated for adhesion at 4×10^5 cells. Cells were incubated at 37 C for 1 hour, fixed in 3.7% formaldehyde, washed in 0.1% BSA in PBS and stained with crystal violet (5 mg/ml in 2% ethanol) for 10 minutes. Then 2% SDS was added to the dried plated and OD at 590 nm was measured for detecting cell adhesion. […] Protein concentrations were determined using a Bio-Rad Kit. The boiled samples were loaded on Ready SDS-10% PAGE gels (Bio Rad, Inc) and used for Western blot analysis with the protein-specific antibody. […] Detachment Assay—Cells were plated with and without inhibitors for 24 hours, and detached and attached cells were counted in a hemocytometer. We calculated the percent of detachment by dividing the number of detached cells by the total number of cells. The percent of detached cells was calculated in three independent experiments. […] The percent of apoptotic cells was calculated as a ratio of apoptotic detached cells divided by the total number of cells in three independent experiments in several fields with the fluorescent microscope. For each experiment 300 cells per treatment were counted. […]

[6] = tested on: Panc-1 and Miapaca-2 cells; test: Trypan blue staining, pancreatic cancer cells; format: cell-based, human; conditions: increasing doses, 24 hours
Procedure: as §1

[7] = tested on: normal breast epithelial cells (MCF10A); test: Trypan blue staining, normal breast epithelial cells; format: cell-based, human; conditions: doses up to 10 μM
Procedure: as §1

BT474 cells [8] = test: Cell adhesion assay on collagen-coated plates, BT474; format: cell-based
Procedure: as §1

Y397-FAK phosphorylation = test: Y397-FAK levels in BT474 tumors (Western blotting, immunohistochemistry); format: in vivo; conditions: 30 mg/kg, vs untreated mice
Procedure: as §1

[9] = tested on: Y397 phosphorylation of FAK; test: Western blotting with Y397 antibody, time course in pancreatic tumor cells; format: cell-based, human; conditions: 100 μM
Procedure: as §1

ERK1/2 phosphorylation = ERK1/2 phosphorylation in pancreatic cancer cells; format: cell-based, human; conditions: dose dependent
Procedure: as §1

normal human fibroblasts = test: Detachment and morphology, normal human fibroblasts; format: cell-based; conditions: doses up to 10 μM
Procedure: as §1

caspase-3 = test: Caspase-3 immunohistochemistry of Panc-1 tumors; format: in vivo, mice; conditions: 30 mg/kg, no significant increase
Procedure: as §1

In the case of `Cl.Cl.Cl.Cl.Nc1cc(N)c(N)cc1N` [Y15, 1,2,4,5-benzenetetraamine tetrahydrochloride], the cell viability [1] was “maximally decreased cell viability”, the “dose at which viability started to decrease” value [2] was 10 µM and the “doses at which viability was significantly blocked” value [2] was 50 to 100 µM. For the same compound, the “total FAK level” value ([3]; 100 μM) was “down-regulates FAK”, the “treatment time enough to completely block Y397-phosphorylation” value ([3]; 100 μM) was 8 h and the “inhibition of Y397 phosphorylation compared with TAE226” value ([3]; 100 μM dose, 24 hours) was “same inhibition as TAE226”. For the same compound, the “Y397 phosphorylation after 4 hours” value ([3]; 100 μM, 4 hours) was “did not significantly decreased Y397 phosphorylation”, the “Y397 phosphorylation of FAK” value ([3]; 100 μM, 24 hours) was “specifically inhibited Y397 phosphorylation of FAK” and the “dose with high inhibition of Y397 phosphorylation” value ([3]; 24 hours) was 50 µM. The “dose with maximal inhibition of Y397 phosphorylation” value ([3]; 24 hours) was 100 µM, the “phosphorylation of Y118-paxillin” value [4] was “inhibited” and the “phosphorylation of c-Src” value (c-Src phosphorylation) was “did not inhibit”. For the same compound, the “phosphorylation of FAK downstream substrate paxillin” value (paxillin phosphorylation) was “blocked”, the “dose from which FAK autophosphorylation activity was directly blocked” value (FAK) was 1 and the detachment (BT474 cells [5]; 10 μM) was 8%. For the same compound, the detachment (BT474 cells [5]; 50 μM) was 38%, the detachment (BT474 cells [5]; 100 μM) was 58% and the “apoptotic nuclei (Hoechst)” value (Panc-1 cells; 50 μM) was “no detection of apoptotic nuclei”. For the same compound, the increase in apoptosis (Panc-1 cells; 50-100 μM, not significant) was “less than 10%”, the “cell viability (trypan blue)” value [6] was “decreased cell viability indicative of necrosis” and the “cell viability (trypan blue)” value [7] was “no decrease in cell viability”. The cell adhesion (BT474 cells [8]; 100 μM) was “significantly inhibited cell adhesion as TAE-226”, the “dose from which cell adhesion was significantly decreased” value (BT474 cells [8]; collagen-coated plates) was 50 µM and the “Y397-FAK phosphorylation in tumors” value (Y397-FAK phosphorylation) was “less Y397-FAK phosphorylation”. For the same compound, the “total FAK levels in tumors” value (Y397-FAK phosphorylation) was “the same”, the “treatment time enough to completely block Y397-phosphorylation” value [9] was 24 h and the “Y397 phosphorylation after 6 hours or less” value ([9]; 6 hours or less) was “did not significantly decrease Y397 phosphorylation”. For the same compound, the p-ERK (ERK1/2 phosphorylation) was “down regulated”, the “morphology and cell detachment” value (normal human fibroblasts) was “did not cause a significant change in morphology or increase in cell detachment” and the “apoptotic cells in tumors (caspase-3 staining)” value (caspase-3) was 6%.
